Assay results reported in patent US6068687A, “Azo dyes and their preparation and use” (Ilford Imaging Switzerland GmbH, priority 1997, dated 2000).

Legend:
[1] = Dye solubility in deionised water (spectroscopic determination in filtered solution); assay type: physicochemical; conditions: for Solubility: deionised water, stirred 1 hour at 50° C, cooled to 20° C, filtered; for Solubility compared with previously known dye (in words): comparison with known dye, Table 4
Experimental: An excess of dye was dispersed in deionised water and this dispersion was stirred for 1 hour at 50° C. Then the mixture was cooled down to 20° C., centrifuged and filtered through a Millipore® filter of 0.5 μm pore diameter. Dye solubility was determined spectroscopically in the filtered solution.

[2] = Hydrolysis stability (pH change of 5% aqueous dye solution on storage); assay type: physicochemical; conditions: for pH change during storage: 5% by weight aqueous solution, initial pH 7.0, 60° C, 30 days; for Stability against hydrolysis compared with known dye (2) (in words): comparison with dye (2), Table 4
Experimental: An aqueous solution (5% by weight) was prepared and the pH value of this solution was adjusted to 7.0. The solution was filtered through a Millipore® filter of 0.5 μm pore diameter. The filtered solution was then heated to a temperature of 60° C. for 30 days, cooled down afterwards to a temperature of 20° C. and the pH value was measured again. The difference of the pH values before and after storage is an indicator of hydrolysis stability.

[3] = Storage stability of inks (precipitation); assay type: physicochemical; design: key: ⊕: No precipitation; .diamond.: Slight precipitation; .O slashed.: Heavy precipitation; conditions: ink, 0° C, 30 days, hermetically sealed bottles
Experimental: (§1) 100 g of each ink were prepared by heating the necessary components from Table 3 (all amounts are indicated in grams) together with water at a temperature of 50° C. under stirring for one hour. The resulting solution was cooled down to 20° C., its pH value was adjusted to 7.5 and the solution was passed through a Millipore® filter of 0.5 μm pore diameter.
The inks were stored at a temperature of 0° C. for 30 days in hermetically sealed bottles. The quantity of precipitate eventually formed was evaluated in the following way: […]

[4] = Jetting stability of inks (IRIS ink jet printer nozzle); design: key: ⊕: Unchanged; .diamond.: Slightly changed; .O slashed.: Heavily changed; conditions: 100 hours continual jetting, exit angle and nozzle condition
Experimental: as §1
The inks were expelled continually during 100 hours from a nozzle of the IRIS ink jet printer. Afterwards the change of the exit angle of the ink stream and the condition of the nozzle were evaluated in the following way: […]

Solubility [1] [g per 100 ml]	pH change during storage [2]	(C) Storage stability [3]	(D) Jetting stability [4]	Structure (SMILES)	Solubility compared with previously known dye (in words) [1]	Stability against hydrolysis compared with known dye (2) (in words) [2]
12	-0.2	.diamond.	.diamond.	Nc1ccc2cc(S(=O)(=O)O)cc(O)c2c1N=Nc1ccc(Nc2nc(NCCO)nc(Nc3cccc(S(=O)(=O)O)c3)n2)cc1S(=O)(=O)O [(1)]	–	–
34	-0.5	⊕	⊕	COc1cc(N=Nc2cc(S(=O)(=O)O)c3cccc(S(=O)(=O)O)c3c2)c(C)cc1Nc1nc(SCCCS(=O)(=O)O)nc(SCCCS(=O)(=O)O)n1 [(2)]	–	–
32	0	⊕	⊕	CCOc1nc(Nc2cc(C)c(N=Nc3cc(S(=O)(=O)O)c4cccc(S(=O)(=O)O)c4c3)cc2OC)nc(SCCCS(=O)(=O)O)n1 [(100)]	considerably higher solubility than the previously known dye (2)	much better stability against hydrolysis than the known dye (2)
32	-0.1	⊕	⊕	CCOc1nc(Nc2ccc(N=Nc3c(N)ccc4cc(S(=O)(=O)O)cc(O)c34)c(S(=O)(=O)O)c2)nc(SCCCS(=O)(=O)O)n1 [(113)]	considerably higher solubility than the previously known dye (2)	much better stability against hydrolysis than the known dye (2)
–	–	⊕	⊕	CCN(c1ccccc1)c1nc(Nc2cc(S(=O)(=O)O)cc3cc(S(=O)(=O)O)c(N=Nc4ccccc4S(=O)(=O)O)c(O)c23)nc(SCCCS(=O)(=O)O)n1 [(117)]	–	–
34	0	⊕	⊕	COc1cc(N=Nc2cc(S(=O)(=O)O)c3cccc(S(=O)(=O)O)c3c2)c(C)cc1Nc1nc(SCCCS(=O)(=O)O)nc(N(C)CCO)n1 [(120)]	considerably higher solubility than the previously known dye (2)	much better stability against hydrolysis than the known dye (2)
38	-0.1	⊕	⊕	Nc1ccc2cc(S(=O)(=O)O)cc(O)c2c1N=Nc1ccc(Nc2nc(SCCCS(=O)(=O)O)nc(N(CCO)CCO)n2)cc1S(=O)(=O)O [(121)]	considerably higher solubility than the previously known dye (2)	much better stability against hydrolysis than the known dye (2)
